Marks after values point to notes of the source that are not given here.
Tests used:
[1] = Maximum expulsion percent of single metal cations from water solution (Example 8)
Method: A water solution (110 ml) containing known amount of single cationic element or elements, typically 0.5-200 ppm, was prepared from Merch Titrisol® standard solution. After adjusting pH by using acid (e.g. HCl or HNO3) or base (e.g. NaOH) to desired initial value, sample A (10 ml) was taken followed by adding 100 mg of selected solid complexation agent. The mixture was stirred at room temperature for 24 h and sample B (10 ml) was taken. Samples A and B were filtrated separately trough 0.2 μm syringe filter and the concentration of the studied element or elements in both solution was determined by using atomic absorption spectrophotometer. The expulsion percent was determined from the concentration differences between the sample solutions A and B.
The maximum expulsion percent and pH value in which the value was achieved was determined for each single cationic element using the general procedure mentioned above.

[2] = Purification of waste water containing heavy metals, TS 2 (Example 17)
Method: Waste water sample from dumping site containing some heavy metals: ca. 2 g/l of Ca^2+; […] of As^3+ (or As^5+), Cr^3+, Fe^2/3+, Pb^2+, Sr^2+, Zn^2+ and Hg^2+; pH 3.56.
TS 2 (100 ml), which initial metal cation concentrations were determined by AAS and ICP-AES methods, was treated with 1a (1.0 g) with stirring for 24 h. After filtration trough 0.2 μm syringe filter metal concentrations in solution were determined.

With `NCCCCCCCCCCC(O)(P(=O)(O)O)P(=O)(O)O` [Compound 1a, 11-Amino-1-hydroxyundecane-1,1-diyldiphosphonic acid] the “Expulsion-% (maximum)” value ([1]; Ag^+, pH 2.0, initial 1 ppm) was 100%, the “Expulsion-% (maximum)” value ([1]; Al^3+, pH 2.1, initial 10 ppm) was 96.9% and the “Expulsion-% (maximum)” value ([1]; Au^3+, pH 0.5, initial 1 ppm) was 63.3%. The “Expulsion-% (maximum)” value ([1]; Ba^2+, pH 3.0, initial 10 ppm) was 90.2%, the “Expulsion-% (maximum)” value ([1]; Bi^3+, pH 3.0, initial 10 ppm) was 100% and the “Expulsion-% (maximum)” value ([1]; Ca^2+, pH 2.6, initial 2 ppm) was 69.9%. The “Expulsion-% (maximum)” value ([1]; Cd^2+, pH 3.6, initial 0.5 ppm) was 97.3%, the “Expulsion-% (maximum)” value ([1]; Co^2+, pH 3.4, initial 1 ppm) was 85.0% and the “Expulsion-% (maximum)” value ([1]; Cr^3+, pH 3.1, initial 2 ppm) was 97.2%. For the same compound, the “Expulsion-% (maximum)” value ([1]; Cr^6+, pH 6.6, initial 2 ppm) was 0%, the “Expulsion-% (maximum)” value ([1]; Cu^2+, pH 3.5, initial 2 ppm) was 95.7% and the “Expulsion-% (maximum)” value ([1]; Cu^+, pH 2.4, initial 2 ppm) was 85.3%. For the same compound, the “Expulsion-% (maximum)” value ([1]; Eu^3+, pH 4.0, initial 5 ppm) was 85.3%, the “Expulsion-% (maximum)” value ([1]; Fe^2+, pH 6.5, initial 1 ppm) was 93.0% and the “Expulsion-% (maximum)” value ([1]; Fe^3+, pH 3.1, initial 1 ppm) was 98.9%. The “Expulsion-% (maximum)” value ([1]; Ga^3+, pH 0.5, initial 50 ppm) was 1.0%, the “Expulsion-% (maximum)” value ([1]; Gd^3+, pH 1.5, initial 100 ppm) was 0% and the “Expulsion-% (maximum)” value ([1]; Hg^2+, pH 5.0, initial 0.1 ppm) was 93.0%. The “Expulsion-% (maximum)” value ([1]; Hg^+, pH 3.0, initial 1 ppm) was 89.4%, the “Expulsion-% (maximum)” value ([1]; In^3+, pH 2.1, initial 20 ppm) was 73.4% and the “Expulsion-% (maximum)” value ([1]; Ir^3+, pH 0.6, initial 100 ppm) was 66.1%. For the same compound, the “Expulsion-% (maximum)” value ([1]; K^+, pH 4.2, initial 1 ppm) was 0%, the “Expulsion-% (maximum)” value ([1]; La^3+, pH 3.0, initial 100 ppm) was 54.1% and the “Expulsion-% (maximum)” value ([1]; Li^+, pH 3.9, initial 0.5 ppm) was 4.8%. For the same compound, the “Expulsion-% (maximum)” value ([1]; Mg^2+, pH 2.9, initial 0.5 ppm) was 64.3%, the “Expulsion-% (maximum)” value ([1]; Mn^2+, pH 3.4, initial 1 ppm) was 93.8% and the “Expulsion-% (maximum)” value ([1]; Mo^6+, pH 8.9, initial 10 ppm) was 80.8%. The “Expulsion-% (maximum)” value ([1]; Na^+, pH 3.9, initial 0.5 ppm) was 0%, the “Expulsion-% (maximum)” value ([1]; Nb^5+, pH 8.5, initial 100 ppm) was 100% and the “Expulsion-% (maximum)” value ([1]; Nd^3+, pH 4.1, initial 100 ppm) was 98.1%. The “Expulsion-% (maximum)” value ([1]; Ni^2+, pH 3.3, initial 1 ppm) was 78.6%, the “Expulsion-% (maximum)” value ([1]; Os^4+, pH 0.5, initial 100 ppm) was 85.8% and the “Expulsion-% (maximum)” value ([1]; Pb^2+, pH 3.2, initial 5 ppm) was 99.6%. For the same compound, the “Expulsion-% (maximum)” value ([1]; Pd^2+, pH 8.0, initial 5 ppm) was 77.8%, the “Expulsion-% (maximum)” value ([1]; Pt^2+, pH 0.5, initial 25 ppm) was 70.0% and the “Expulsion-% (maximum)” value ([1]; Rh^3+, pH 4.0, initial 10 ppm) was 77.7%. The “Expulsion-% (maximum)” value ([1]; Ru^3+, pH 2.0, initial 10 ppm) was 48.5%, the “Expulsion-% (maximum)” value ([1]; Sb^3+, pH 3.0, initial 10 ppm) was 100% and the “Expulsion-% (maximum)” value ([1]; Sc^3+, pH 2.0, initial 5 ppm) was 100%. The “Expulsion-% (maximum)” value ([1]; Si^4+, pH 1.0, initial 50 ppm) was 1.3%, the “Expulsion-% (maximum)” value ([1]; Sn^2+, pH 7.0, initial 50 ppm) was 98.1% and the “Expulsion-% (maximum)” value ([1]; Sn^4+, pH 10.3, initial 200 ppm) was 100%. For the same compound, the “Expulsion-% (maximum)” value ([1]; Sr^2+, pH 5.0, initial 2 ppm) was 93.2%, the “Expulsion-% (maximum)” value ([1]; Ti^4+, pH 9.8, initial 50 ppm) was 48.8% and the “Expulsion-% (maximum)” value ([1]; U^6+, pH 3.4, initial 2.5 ppm) was 87.6%. The “Expulsion-% (maximum)” value ([1]; V^4+, pH 0.5, initial 100 ppm) was 69.3%, the “Expulsion-% (maximum)” value ([1]; W^6+, pH 1.6, initial 50 ppm) was 12.0% and the “Expulsion-% (maximum)” value ([1]; Y^3+, pH 2.1, initial 25 ppm) was 89.1%. The “Expulsion-% (maximum)” value ([1]; Zn^2+, pH 3.7, initial 0.5 ppm) was 94.7%, the “Expulsion-% (maximum)” value ([1]; Zr^4+, pH 0.5, initial 100 ppm) was 81.5% and the “Expulsion [%]” value ([2]; As^3/5+) was ≥ 61.7^2) %. For the same compound, the “Expulsion [%]” value ([2]; Ca^2+) was 75.4%, the “Expulsion [%]” value ([2]; Cd^2+) was ≥ 89.4^5) % and the “Expulsion [%]” value ([2]; Cr^3+) was 23.9%. For the same compound, the “Expulsion [%]” value ([2]; Fe^2/3+) was 22.8%, the “Expulsion [%]” value ([2]; Hg^1/2+ (CVAAS)) was 99.0^1) % and the “Expulsion [%]” value ([2]; Pb^2+) was ≥ 68.9^5) %. The “Expulsion [%]” value ([2]; Sr^2+) was 84.3% and the “Expulsion [%]” value ([2]; Zn^2+) was 76.8%.
